According to patent US20240216395A1, “19-NOR C3,3-DISUBSTITUTED C21 -N-PYRAZOLYL STEROID FOR USE IN TREATING MAJOR DEPRESSIVE DISORDER AND […]” (priority 2021, published 2024):

Key:
[1] = system: nondependent, recreational users of CNS depressants; assay: Abuse potential main study, treatment phase: TEAEs; format: in vivo, human; settings: treatment phase
Procedure: The main study consisted of 4 phases (FIG. 30B). The screening phase was a 1-day visit occurring within 21 days of the beginning of the qualification phase. The qualification phase was a 4-day, inpatient period to ensure participants could discriminate between alprazolam (active comparator) and placebo, and that they could tolerate the alprazolam 2-mg doses. Participants received single-oral doses of alprazolam 2 mg and placebo in a crossover manner 24 hours apart, and if they could discriminate between the two medications, they continued to the treatment phase. The treatment phase was a double-blind, active- and placebo-controlled, 6-way crossover design where participants were randomized equally to a single oral dose of 1 of 6 treatments: placebo, alprazolam (1.5 and 3 mg), and Compound (1) (30, 60, and 90 mg). The Compound (1) doses were based on the results from the first part, dose selection, and treatments were separated by 7 days. The follow-up phase was a 1-day visit occurring 7 (2) days after the treatment phase.
Safety and tolerability endpoints included the frequency and severity of AEs and SAEs, the change from baseline in clinical laboratory assessments, vital signs, and ECG, and suicidality assessed by the Columbia-Suicide Severity Rating Scale (C-SSRS).
The dose selection safety set included all participants who received 1 dose of Compound (1). The main study qualification safety set included all participants who received ≥1 dose of alprazolam. For the treatment phase, the randomized set included all participants who were randomized and the safety set included all participants who received ≥1 dose of Compound (1) or alprazolam. The completer set included all participants in the randomized set who completed all treatment periods, had sufficient data for evaluation of the primary endpoint, and had ≥1 observation within 2 hours of Tmax for each treatment for Drug Liking VAS scores. […] The PK set included all participants in the treatment phase who received 1 dose of Compound (1) and had 1 PK sample after dosing.

[2] = system: nondependent, recreational users of CNS depressants; assay: Abuse potential main study, treatment phase: subjective VAS measures (Drug Liking, Overall Drug Liking, Take Drug Again, High, Good/Bad/Any Drug Effects, Alertness/Drowsiness, Drug Similarity)
[3] = Alprazolam 1.5 mg - placebo (study validity)
[4] = Alprazolam 3 mg - placebo (study validity)

Cc1nnc2n1-c1ccc(Cl)cc1C(c1ccccc1)=NC2 [Alprazolam, alprazolam, reference compound]
Back pain (TEAE) ([1]; Alprazolam 1.5 mg (n = 71)): 0 n | Confusional state (TEAE) ([1]; Alprazolam 1.5 mg (n = 71)): 0 n | Fine motor skill dysfunction (TEAE) ([1]; Alprazolam 1.5 mg (n = 71)): 0 n | Hiccups (TEAE) ([1]; Alprazolam 1.5 mg (n = 71)): 0 n | Irritability (TEAE) ([1]; Alprazolam 1.5 mg (n = 71)): 0 n | Swelling face (TEAE) ([1]; Alprazolam 1.5 mg (n = 71)): 0 n | Tremor (TEAE) ([1]; Alprazolam 1.5 mg (n = 71)): 0 n | Feeling drunk (TEAE) ([1]; Alprazolam 3 mg (n = 66)): 0 n | Fine motor skill dysfunction (TEAE) ([1]; Alprazolam 3 mg (n = 66)): 0 n | Irritability (TEAE) ([1]; Alprazolam 3 mg (n = 66)): 0 n | Swelling face (TEAE) ([1]; Alprazolam 3 mg (n = 66)): 0 n | Tremor (TEAE) ([1]; Alprazolam 3 mg (n = 66)): 0 n | Upper respiratory tract infection (TEAE) ([1]; Alprazolam 3 mg (n = 66)): 0 n | Drug Liking Emax difference ([2]; Alprazolam 1.5 mg - placebo): 22.50 | Overall Drug Liking Emax difference ([2]; Alprazolam 1.5 mg - placebo): 24.00 | Take Drug Again Emax difference ([2]; Alprazolam 1.5 mg - placebo): 24.00 | Bad Drug Effects Emax difference [2, 3]: 0.00 | Good Drug Effects Emax difference [2, 3]: 49.00 | High Effects Emax difference [2, 3]: 43.80 | Drug Liking Emax difference ([2]; Alprazolam 3 mg - placebo): 25.52 | Overall Drug Liking Emax difference ([2]; Alprazolam 3 mg - placebo): 26.00 | Take Drug Again Emax difference ([2]; Alprazolam 3 mg - placebo): 29.00 | Bad Drug Effects Emax difference [2, 4]: 1.00 | Good Drug Effects Emax difference [2, 4]: 53.47 | High Effects Emax difference [2, 4]: 51.65 | Drug Similarity: Placebo Similarity median score ([2]; all dosages, 12 hours postdose): zero | Drug Similarity: Benzodiazepines Similarity median score ([2]; alprazolam 1.5 mg): 92.5 | Drug Similarity: Opioids Similarity median score ([2]; alprazolam 3 mg): 40.0
